Patent US9062124B2, “GIP-based mixed agonists for treatment of metabolic disorders and obesity” (priority 2008, dated 2015)
pEC50: −log10 of the molar value. Where a SMILES comes first, the peptide text is derived from it. Bridges are numbered along the chain shown (N, C = ends). [ ]: non-standard residue; d: D form. Dab = NCC[C@H](N)C(=O)O; Aib = CC(C)(N)C(=O)O

What was measured:
Format in all cases: cell-based
GIP receptor = biological target: T1, GIP receptor (Homo sapiens, UniProt P48546); assay: cAMP synthesis functional assay (firefly luciferase reporter in HEK293 cells), GIP receptor
T1 construct: expressed in transfected cells; host or cells: HEK293
T1 sequence (P48546 22-466): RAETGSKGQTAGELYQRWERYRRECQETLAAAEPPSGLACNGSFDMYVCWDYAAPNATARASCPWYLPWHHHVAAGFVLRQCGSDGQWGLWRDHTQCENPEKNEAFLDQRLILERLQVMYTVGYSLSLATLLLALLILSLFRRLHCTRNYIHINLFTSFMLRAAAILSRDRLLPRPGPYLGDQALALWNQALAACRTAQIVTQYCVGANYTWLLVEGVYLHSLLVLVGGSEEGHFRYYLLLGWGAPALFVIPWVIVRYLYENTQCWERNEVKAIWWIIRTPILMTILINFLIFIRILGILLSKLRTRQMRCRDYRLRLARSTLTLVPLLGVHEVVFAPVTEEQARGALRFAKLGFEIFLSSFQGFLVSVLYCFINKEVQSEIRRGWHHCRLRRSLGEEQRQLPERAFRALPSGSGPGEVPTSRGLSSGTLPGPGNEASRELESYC

glucagon receptor = biological target: T2, glucagon receptor (Homo sapiens, UniProt P47871); assay: cAMP synthesis functional assay (firefly luciferase reporter in HEK293 cells), glucagon receptor; conditions: for pEC50: Glucagon Receptor EC50, cAMP luciferase reporter assay as in Example 16
T2 construct: expressed in transfected cells; host or cells: HEK293
T2 sequence (P47871 26-477): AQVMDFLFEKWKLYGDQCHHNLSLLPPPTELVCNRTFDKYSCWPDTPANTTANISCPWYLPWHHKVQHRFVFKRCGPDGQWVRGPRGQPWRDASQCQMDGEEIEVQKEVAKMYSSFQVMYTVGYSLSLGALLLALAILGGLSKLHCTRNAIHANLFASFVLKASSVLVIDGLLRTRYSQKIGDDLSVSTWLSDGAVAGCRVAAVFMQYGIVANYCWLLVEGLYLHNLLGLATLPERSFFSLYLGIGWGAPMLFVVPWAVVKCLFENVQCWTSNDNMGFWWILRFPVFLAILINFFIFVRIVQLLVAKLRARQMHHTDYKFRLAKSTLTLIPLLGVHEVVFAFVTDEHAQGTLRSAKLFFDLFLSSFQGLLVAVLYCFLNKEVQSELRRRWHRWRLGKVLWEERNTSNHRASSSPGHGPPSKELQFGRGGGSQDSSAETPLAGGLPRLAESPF

[1] = system: glucagon receptor, GLP-1 receptor or GIP receptor; assay: Agonist profile across receptors assigned from the cAMP reporter assay data; conditions: assigned from the in vitro EC50 data of Tables 1-4
GLP-1 receptor = biological target: T3, GLP-1 receptor (Homo sapiens, UniProt P43220); assay: cAMP synthesis functional assay (firefly luciferase reporter in HEK293 cells), GLP-1 receptor
T3 construct: expressed in transfected cells; host or cells: HEK293
T3 sequence (P43220 24-463, species assumed): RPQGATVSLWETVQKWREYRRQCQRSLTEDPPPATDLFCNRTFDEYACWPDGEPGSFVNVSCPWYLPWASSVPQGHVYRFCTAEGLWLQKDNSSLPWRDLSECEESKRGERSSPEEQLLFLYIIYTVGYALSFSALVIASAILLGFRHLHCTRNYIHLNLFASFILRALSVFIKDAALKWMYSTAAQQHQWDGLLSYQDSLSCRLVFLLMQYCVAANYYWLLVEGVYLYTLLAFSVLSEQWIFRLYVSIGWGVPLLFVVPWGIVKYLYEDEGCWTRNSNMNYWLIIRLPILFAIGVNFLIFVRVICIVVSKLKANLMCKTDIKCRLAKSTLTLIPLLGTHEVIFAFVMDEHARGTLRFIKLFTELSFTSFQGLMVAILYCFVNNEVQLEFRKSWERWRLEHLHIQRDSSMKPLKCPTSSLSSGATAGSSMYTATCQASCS

[2] = Table 1, relative to the native hormone of the indicated receptor
[3] = relative to the standard (Std.) EC50 of the same run

| Compound | GIP Receptor relative activity (GIP receptor; [2]) [%] | Glucagon Receptor relative activity (glucagon receptor; [2]) [%] | receptor activity profile (glucagon / GLP-1 / GIP agonism) [1] | GLP-1 Receptor relative activity (GLP-1 receptor; [2]) [%] | GIP Receptor relative activity (GIP receptor; [3]) [%] | pEC50 (glucagon receptor) | Glucagon Receptor relative activity (glucagon receptor; [3]) [%] | pEC50 (GLP-1 receptor; GLP-1 Receptor EC50, cAMP luciferase reporter assay as in Example 16) | GLP-1 Receptor relative activity (GLP-1 receptor; [3]) [%] | pEC50 (GIP receptor; GIP Receptor EC50, cAMP luciferase reporter assay as in Example 16) |
| --- | --- | --- | --- | --- | --- | --- | --- | --- | --- | --- |
| CC[C@H](C)[C@H](NC(=O)[C@H](CO)NC(=O)[C@H](Cc1ccc(O)cc1)NC(=O)[C@H](CC(=O)O)NC(=O)[C@H](CO)NC(=O)[C@@H](NC(=O)[C@H](Cc1ccccc1)NC(=O)[C@@H](NC(=O)CNC(=O)[C@H](CCC(N)=O)NC(=O)C(C)(C)NC(=O)[C@@H](N)Cc1ccc(O)cc1)[C@@H](C)O)[C@@H](C)O)C(=O)N[C@@H](Cc1ccc(O)cc1)C(=O)N[C@@H](CC(C)C)C(=O)N[C@@H](CC(=O)O)C(=O)N[C@@H](CCC(=O)O)C(=O)N[C@@H](CCC(=O)O)C(=O)N[C@@H](C)C(=O)N[C@H](C(=O)N[C@@H](CCCNC(=N)N)C(=O)N[C@@H](CC(C)C)C(=O)N[C@@H](Cc1ccccc1)C(=O)N[C@H](C(=O)N[C@@H](CC(N)=O)C(=O)N[C@@H](Cc1c[nH]c2ccccc12)C(=O)N[C@@H](CC(C)C)C(=O)N[C@@H](CC(C)C)C(=O)N[C@@H](C)C(=O)NCC(=O)NCC(=O)N1CCC[C@H]1C(=O)N[C@@H](CO)C(=O)N[C@@H](CO)C(=O)NCC(=O)N[C@@H](C)C(=O)N1CCC[C@H]1C(=O)N1CCC[C@H]1C(=O)N1CCC[C@H]1C(=O)N[C@@H](CO)C(N)=O)C(C)C)C(C)C [mt-201] (H-Y[Aib]QGTFTSDYSIYLDEEAVRLFVNWLLAGGPSSGAPPPS-NH2; N-terminus assumed) | 44.44 | 0.24 | exemplary GLP-1/GIP co-agonist peptides | 191.67 | – | – | – | – | – | – |
| CCCCCCCCCCCCCCCC(=O)NCCCC[C@H](NC(=O)[C@H](CO)NC(=O)[C@@H]1CCCN1C(=O)[C@@H]1CCCN1C(=O)[C@@H]1CCCN1C(=O)[C@H](C)NC(=O)CNC(=O)[C@H](CO)NC(=O)[C@H](CO)NC(=O)[C@@H]1CCCN1C(=O)CNC(=O)CNC(=O)[C@H](C)NC(=O)[C@H](CC(C)C)NC(=O)[C@H](CC(C)C)NC(=O)[C@H](Cc1c[nH]c2ccccc12)NC(=O)[C@H](CS)NC(=O)[C@@H](NC(=O)[C@H](Cc1ccccc1)NC(=O)[C@H](CCC(=O)O)NC(=O)C(C)(C)NC(=O)[C@H](C)NC(=O)[C@H](C)NC(=O)[C@H](CCC(N)=O)NC(=O)[C@H](CCCCN)NC(=O)[C@H](CC(=O)O)NC(=O)[C@H](CC(C)C)NC(=O)[C@H](Cc1ccc(O)cc1)NC(=O)[C@@H](NC(=O)[C@H](CO)NC(=O)[C@H](Cc1ccc(O)cc1)NC(=O)[C@H](CC(=O)O)NC(=O)[C@H](CO)NC(=O)[C@@H](NC(=O)[C@H](Cc1ccccc1)NC(=O)[C@@H](NC(=O)CNC(=O)[C@H](CCC(=O)O)NC(=O)C(C)(C)NC(=O)[C@@H](N)Cc1ccc(O)cc1)[C@@H](C)O)[C@@H](C)O)[C@@H](C)CC)C(C)C)C(N)=O [mt-296] | – | – | exhibited activity at the GIP, GLP-1, and glucagon receptors | – | 211.69 | 9.38 | 11.34 | 10.91 | 130.65 | – |
| CC[C@H](C)[C@H](NC(=O)[C@H](CO)NC(=O)[C@H](Cc1ccc(O)cc1)NC(=O)[C@H](CC(=O)O)NC(=O)[C@H](CO)NC(=O)[C@@H](NC(=O)[C@H](Cc1ccccc1)NC(=O)[C@@H](NC(=O)CNC(=O)[C@H](CCC(N)=O)NC(=O)[C@@H](C)NC(=O)[C@@H](N)Cc1ccc(O)cc1)[C@@H](C)O)[C@@H](C)O)C(=O)N[C@@H](Cc1ccc(O)cc1)C(=O)N[C@@H](CC(C)C)C(=O)N[C@@H](CC(=O)O)C(=O)N[C@H]1CCC(=O)NCCCC[C@@H](C(=O)N[C@@H](CCC(=O)O)C(=O)N[C@@H](Cc2ccccc2)C(=O)N[C@H](C(=O)N[C@@H](CC(N)=O)C(=O)N[C@@H](Cc2c[nH]c3ccccc23)C(=O)N[C@@H](CC(C)C)C(=O)N[C@@H](CC(C)C)C(=O)N[C@@H](C)C(=O)NCC(=O)NCC(=O)N2CCC[C@H]2C(=O)N[C@@H](CO)C(=O)N[C@@H](CO)C(=O)NCC(=O)N[C@@H](C)C(=O)N2CCC[C@H]2C(=O)N2CCC[C@H]2C(=O)N2CCC[C@H]2C(=O)N[C@@H](CO)C(=O)N[C@@H](CS)C(N)=O)C(C)C)NC(=O)[C@H](C)NC(=O)[C@H](C)NC(=O)[C@H](CCC(N)=O)NC1=O [mt-166] (H-Y[dA]QGTFTSDYSIYLDEQAAKEFVNWLLAGGPSSGAPPPSC-NH2; lactam 16-20; N-terminus assumed) | 5.94 | 9.83 | exemplary GLP-1/GIP/glucagon triagonist peptides | 26.87 | – | – | – | – | – | – |
| CC[C@H](C)[C@H](NC(=O)[C@H](CO)NC(=O)[C@H](Cc1ccc(O)cc1)NC(=O)[C@H](CC(=O)O)NC(=O)[C@H](CO)NC(=O)[C@@H](NC(=O)[C@H](Cc1ccccc1)NC(=O)[C@@H](NC(=O)CNC(=O)[C@H](CCC(N)=O)NC(=O)C(C)(C)NC(=O)[C@@H](N)Cc1ccc(O)cc1)[C@@H](C)O)[C@@H](C)O)C(=O)N[C@@H](Cc1ccc(O)cc1)C(=O)N[C@@H](CC(C)C)C(=O)N[C@@H](CC(=O)O)C(=O)N[C@@H](CCN)C(=O)N[C@@H](CCC(N)=O)C(=O)N[C@@H](C)C(=O)N[C@@H](C)C(=O)NC(C)(C)C(=O)N[C@@H](CCC(=O)O)C(=O)N[C@@H](Cc1ccccc1)C(=O)N[C@H](C(=O)N[C@@H](CC(N)=O)C(=O)N[C@@H](Cc1c[nH]c2ccccc12)C(=O)N[C@@H](CC(C)C)C(=O)N[C@@H](CC(C)C)C(=O)N[C@@H](C)C(=O)NCC(=O)NCC(=O)N1CCC[C@H]1C(=O)N[C@@H](CO)C(=O)N[C@@H](CO)C(=O)NCC(=O)N[C@@H](C)C(=O)N1CCC[C@H]1C(=O)N1CCC[C@H]1C(=O)N1CCC[C@H]1C(=O)N[C@@H](CO)C(=O)N[C@@H](CS)C(N)=O)C(C)C [mt-276] (H-Y[Aib]QGTFTSDYSIYLD[Dab]QAA[Aib]EFVNWLLAGGPSSGAPPPSC-NH2; N-terminus assumed) | – | – | exhibited activity at the GIP, GLP-1, and glucagon receptors | – | 173.75 | – | 77.65 | – | 107.58 | 11.10 |
| CCCCCCCCCCCCCC(=O)NCCCC[C@H](NC(=O)[C@H](CO)NC(=O)[C@@H]1CCCN1C(=O)[C@@H]1CCCN1C(=O)[C@@H]1CCCN1C(=O)[C@H](C)NC(=O)CNC(=O)[C@H](CO)NC(=O)[C@H](CO)NC(=O)[C@@H]1CCCN1C(=O)CNC(=O)CNC(=O)[C@H](C)NC(=O)[C@H](CC(C)C)NC(=O)[C@H](CC(C)C)NC(=O)[C@H](Cc1c[nH]c2ccccc12)NC(=O)[C@H](CS)NC(=O)[C@@H](NC(=O)[C@H](Cc1ccccc1)NC(=O)[C@H](CCC(=O)O)NC(=O)C(C)(C)NC(=O)[C@H](C)NC(=O)[C@H](C)NC(=O)[C@H](CCC(N)=O)NC(=O)[C@H](CCCCN)NC(=O)[C@H](CC(=O)O)NC(=O)[C@H](CC(C)C)NC(=O)[C@H](Cc1ccc(O)cc1)NC(=O)[C@@H](NC(=O)[C@H](CO)NC(=O)[C@H](Cc1ccc(O)cc1)NC(=O)[C@H](CC(=O)O)NC(=O)[C@H](CO)NC(=O)[C@@H](NC(=O)[C@H](Cc1ccccc1)NC(=O)[C@@H](NC(=O)CNC(=O)[C@H](CCC(=O)O)NC(=O)C(C)(C)NC(=O)[C@@H](N)Cc1ccc(O)cc1)[C@@H](C)O)[C@@H](C)O)[C@@H](C)CC)C(C)C)C(N)=O [mt-306] | – | – | exhibited activity at the GIP, GLP-1, and glucagon receptors | – | 254.69 | 8.83 | 3.20 | – | 80.60 | – |
